# Results taken from the NIST ThermoML archive (doi:10.1021/je900387e).
# Numbers after ± are expanded uncertainties.
# Assay: xn = mol fraction of the nth substance listed
# Details: Liquid, Pycnometric method
compound,measurement,setting,value
CCCCBr [1-bromobutane] + O=C=O,mass density,"322.7 K, 11600 kPa, x1 = 0.0683",826 ± 4 kg/m3
same,mass density,"322.7 K, 11640 kPa, x1 = 0.1495",987 ± 4 kg/m3
same,mass density,"322.7 K, 11680 kPa, x1 = 0.0989",884 ± 4 kg/m3
same,mass density,"322.7 K, 11910 kPa, x1 = 0.0461",797 ± 4 kg/m3
same,mass density,"322.7 K, 11910 kPa, x1 = 0.0683",832 ± 4 kg/m3
same,mass density,"322.7 K, 11990 kPa, x1 = 0.1495",990 ± 4 kg/m3
same,mass density,"322.7 K, 12130 kPa, x1 = 0.0989",890 ± 4 kg/m3
same,mass density,"322.7 K, 12220 kPa, x1 = 0.0683",838 ± 4 kg/m3
same,mass density,"322.7 K, 12290 kPa, x1 = 0.1495",994 ± 4 kg/m3
same,mass density,"322.7 K, 12570 kPa, x1 = 0.0683",845 ± 4 kg/m3
same,mass density,"322.7 K, 12610 kPa, x1 = 0.0989",897 ± 4 kg/m3
same,mass density,"322.7 K, 12640 kPa, x1 = 0.0461",814 ± 4 kg/m3
same,mass density,"322.7 K, 12660 kPa, x1 = 0.1495",997 ± 4 kg/m3
same,mass density,"322.7 K, 12900 kPa, x1 = 0.0683",850 ± 4 kg/m3
same,mass density,"322.7 K, 13010 kPa, x1 = 0.1495",1000 ± 4 kg/m3
same,mass density,"322.7 K, 13110 kPa, x1 = 0.0989",903 ± 4 kg/m3
same,mass density,"322.7 K, 13210 kPa, x1 = 0.0461",826 ± 4 kg/m3
same,mass density,"322.7 K, 13280 kPa, x1 = 0.0683",857 ± 4 kg/m3
same,mass density,"322.7 K, 13490 kPa, x1 = 0.1495",1004 ± 4 kg/m3
same,mass density,"322.7 K, 13640 kPa, x1 = 0.0989",910 ± 4 kg/m3
same,mass density,"322.7 K, 13730 kPa, x1 = 0.0683",864 ± 4 kg/m3
same,mass density,"322.7 K, 13820 kPa, x1 = 0.1495",1008 ± 4 kg/m3
same,mass density,"322.7 K, 13830 kPa, x1 = 0.0461",838 ± 4 kg/m3
same,mass density,"322.7 K, 13960 kPa, x1 = 0.0683",867 ± 4 kg/m3
same,mass density,"322.7 K, 14210 kPa, x1 = 0.0989",916 ± 4 kg/m3
same,mass density,"322.7 K, 14230 kPa, x1 = 0.1495",1011 ± 4 kg/m3
same,mass density,"322.7 K, 14620 kPa, x1 = 0.1495",1015 ± 4 kg/m3
same,mass density,"322.7 K, 14880 kPa, x1 = 0.0989",924 ± 4 kg/m3
same,mass density,"322.7 K, 15120 kPa, x1 = 0.1495",1018 ± 4 kg/m3
same,mass density,"322.7 K, 15160 kPa, x1 = 0.0989",926 ± 4 kg/m3
same,mass density,"327.6 K, 8820 kPa, x1 = 0.1495",922 ± 4 kg/m3
same,mass density,"327.6 K, 8950 kPa, x1 = 0.1495",924 ± 4 kg/m3
same,mass density,"327.6 K, 9080 kPa, x1 = 0.0245",359 ± 4 kg/m3
same,mass density,"327.6 K, 9100 kPa, x1 = 0.0989",786 ± 4 kg/m3
same,mass density,"327.6 K, 9110 kPa, x1 = 0.0245",362 ± 4 kg/m3
same,mass density,"327.6 K, 9140 kPa, x1 = 0.1495",927 ± 4 kg/m3
same,mass density,"327.6 K, 9170 kPa, x1 = 0.0245",369 ± 4 kg/m3
same,mass density,"327.6 K, 9220 kPa, x1 = 0.0245",375 ± 4 kg/m3
same,mass density,"327.6 K, 9230 kPa, x1 = 0.0989",791 ± 4 kg/m3
same,mass density,"327.6 K, 9270 kPa, x1 = 0.0245",382 ± 4 kg/m3
same,mass density,"327.6 K, 9330 kPa, x1 = 0.0245",389 ± 4 kg/m3
same,mass density,"327.6 K, 9340 kPa, x1 = 0.1495",930 ± 4 kg/m3
same,mass density,"327.6 K, 9350 kPa, x1 = 0.0683",677 ± 4 kg/m3
same,mass density,"327.6 K, 9360 kPa, x1 = 0.0461",555 ± 4 kg/m3
same,mass density,"327.6 K, 9380 kPa, x1 = 0.0245",396 ± 4 kg/m3
same,mass density,"327.6 K, 9380 kPa, x1 = 0.0461",559 ± 4 kg/m3
same,mass density,"327.6 K, 9380 kPa, x1 = 0.0683",680 ± 4 kg/m3
same,mass density,"327.6 K, 9390 kPa, x1 = 0.0461",563 ± 4 kg/m3
same,mass density,"327.6 K, 9390 kPa, x1 = 0.0989",796 ± 4 kg/m3
same,mass density,"327.6 K, 9420 kPa, x1 = 0.0245",401 ± 4 kg/m3
same,mass density,"327.6 K, 9430 kPa, x1 = 0.0461",569 ± 4 kg/m3
same,mass density,"327.6 K, 9460 kPa, x1 = 0.0245",406 ± 4 kg/m3
same,mass density,"327.6 K, 9470 kPa, x1 = 0.0461",577 ± 4 kg/m3
same,mass density,"327.6 K, 9470 kPa, x1 = 0.0683",688 ± 4 kg/m3
same,mass density,"327.6 K, 9490 kPa, x1 = 0.0461",584 ± 4 kg/m3
same,mass density,"327.6 K, 9520 kPa, x1 = 0.0245",414 ± 4 kg/m3
same,mass density,"327.6 K, 9520 kPa, x1 = 0.1495",933 ± 4 kg/m3
same,mass density,"327.6 K, 9540 kPa, x1 = 0.0989",801 ± 4 kg/m3
same,mass density,"327.6 K, 9560 kPa, x1 = 0.0461",591 ± 4 kg/m3
same,mass density,"327.6 K, 9570 kPa, x1 = 0.0683",696 ± 4 kg/m3
same,mass density,"327.6 K, 9580 kPa, x1 = 0.0245",423 ± 4 kg/m3
same,mass density,"327.6 K, 9650 kPa, x1 = 0.0245",431 ± 4 kg/m3
same,mass density,"327.6 K, 9650 kPa, x1 = 0.0461",599 ± 4 kg/m3
same,mass density,"327.6 K, 9700 kPa, x1 = 0.0683",705 ± 4 kg/m3
same,mass density,"327.6 K, 9700 kPa, x1 = 0.0989",806 ± 4 kg/m3
same,mass density,"327.6 K, 9710 kPa, x1 = 0.0461",606 ± 4 kg/m3
same,mass density,"327.6 K, 9710 kPa, x1 = 0.1495",936 ± 4 kg/m3
same,mass density,"327.6 K, 9720 kPa, x1 = 0.0245",440 ± 4 kg/m3
same,mass density,"327.6 K, 9760 kPa, x1 = 0.0461",615 ± 4 kg/m3
same,mass density,"327.6 K, 9790 kPa, x1 = 0.0245",449 ± 4 kg/m3
same,mass density,"327.6 K, 9830 kPa, x1 = 0.0461",623 ± 4 kg/m3
same,mass density,"327.6 K, 9830 kPa, x1 = 0.0683",714 ± 4 kg/m3
same,mass density,"327.6 K, 9860 kPa, x1 = 0.0245",459 ± 4 kg/m3
same,mass density,"327.6 K, 9890 kPa, x1 = 0.0989",811 ± 4 kg/m3
same,mass density,"327.6 K, 9890 kPa, x1 = 0.1495",939 ± 4 kg/m3
same,mass density,"327.6 K, 9920 kPa, x1 = 0.0461",631 ± 4 kg/m3
same,mass density,"327.6 K, 9950 kPa, x1 = 0.0245",469 ± 4 kg/m3
same,mass density,"327.6 K, 10000 kPa, x1 = 0.0683",723 ± 4 kg/m3
same,mass density,"327.6 K, 10010 kPa, x1 = 0.0461",640 ± 4 kg/m3
same,mass density,"327.6 K, 10030 kPa, x1 = 0.0245",480 ± 4 kg/m3
same,mass density,"327.6 K, 10050 kPa, x1 = 0.0245",484 ± 4 kg/m3
same,mass density,"327.6 K, 10060 kPa, x1 = 0.0245",486 ± 4 kg/m3
same,mass density,"327.6 K, 10070 kPa, x1 = 0.1495",942 ± 4 kg/m3
same,mass density,"327.6 K, 10080 kPa, x1 = 0.0989",817 ± 4 kg/m3
same,mass density,"327.6 K, 10120 kPa, x1 = 0.0461",649 ± 4 kg/m3
same,mass density,"327.6 K, 10190 kPa, x1 = 0.0683",733 ± 4 kg/m3
same,mass density,"327.6 K, 10240 kPa, x1 = 0.0461",658 ± 4 kg/m3
same,mass density,"327.6 K, 10290 kPa, x1 = 0.0989",822 ± 4 kg/m3
same,mass density,"327.6 K, 10310 kPa, x1 = 0.1495",945 ± 4 kg/m3
same,mass density,"327.6 K, 10360 kPa, x1 = 0.0461",668 ± 4 kg/m3
same,mass density,"327.6 K, 10380 kPa, x1 = 0.0683",742 ± 4 kg/m3
same,mass density,"327.6 K, 10500 kPa, x1 = 0.0461",678 ± 4 kg/m3
same,mass density,"327.6 K, 10510 kPa, x1 = 0.0989",828 ± 4 kg/m3
same,mass density,"327.6 K, 10560 kPa, x1 = 0.1495",949 ± 4 kg/m3
